Laboratory results taken from patent US20250195521A1 (Revolution Medicines, Inc., priority 2020, published 2025).

Assays:
[1] = system: NCI-H358 (K-Ras G12C); test: CellTiter-Glo cell viability assay, NCI-H358; type: cell-based, human; conditions: Homo sapiens, NCI-H358, 120 h, 5-day treatment; read-out: H358 Cell Viability assay data (K-Ras G12C, IC50)
Procedure, shortened: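 Luminescent CellTiter-Glo read-out on day 5 after compound exposure; signal expressed as percent of mean DMSO control; four-parameter logistic fit gives the value.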

[2] = biological target: KRAS G12C (Homo sapiens (Human), UniProt P01116+P62937, G12C); test: Ras-Raf disruption/FRET/MOA assay (BRAF RBD, Cyclophilin A); type: biochemical; conditions: read-out: KRAS G12C FRET IC50
KRAS G12C, sequence (P01116-2 other isoform, or with tags, fused parts or gaps G12C): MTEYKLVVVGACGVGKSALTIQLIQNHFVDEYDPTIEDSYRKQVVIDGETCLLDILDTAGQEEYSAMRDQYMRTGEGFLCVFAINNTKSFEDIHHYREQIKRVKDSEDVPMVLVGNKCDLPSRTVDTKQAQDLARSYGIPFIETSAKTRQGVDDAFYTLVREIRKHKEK
KRAS G12C, sequence (P62937 whole entry): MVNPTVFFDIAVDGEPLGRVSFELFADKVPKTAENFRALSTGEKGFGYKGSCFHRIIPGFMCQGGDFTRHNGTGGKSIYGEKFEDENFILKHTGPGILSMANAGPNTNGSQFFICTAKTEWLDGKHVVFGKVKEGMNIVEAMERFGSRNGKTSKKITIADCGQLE
Procedure, shortened: (§1)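 Ras-GMPPNP (12.5 nM), BRAF RBD (50 nM) and 25 μM Cyclophilin A were incubated with compound for 3 h at 25° C, then detected 1.5 h with anti-His Eu and anti-GST APC; IC50 values follow from the reduced TR-FRET ratio.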

[3] = biological target: KRAS G13D (Homo sapiens (Human), UniProt P01116+P62937, G13D); test: as above; type: biochemical; conditions: read-out: KRAS G13D FRET data IC50
KRAS G13D, sequence (P01116 other isoform, or with tags, fused parts or gaps G13D): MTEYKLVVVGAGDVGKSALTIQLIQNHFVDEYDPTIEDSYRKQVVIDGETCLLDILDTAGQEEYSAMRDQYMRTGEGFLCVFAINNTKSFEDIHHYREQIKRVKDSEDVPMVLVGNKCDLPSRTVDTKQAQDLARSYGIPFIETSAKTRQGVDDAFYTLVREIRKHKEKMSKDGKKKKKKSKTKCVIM
KRAS G13D, sequence (P62937 whole entry): as the sequence (P62937 whole entry) above
Procedure, shortened: as §1

[4] = biological target: NRAS Q61K (Homo sapiens (Human), UniProt P01111+P62937, Q61K); test: as above; type: biochemical
NRAS Q61K, sequence (P01111 whole entry Q61K): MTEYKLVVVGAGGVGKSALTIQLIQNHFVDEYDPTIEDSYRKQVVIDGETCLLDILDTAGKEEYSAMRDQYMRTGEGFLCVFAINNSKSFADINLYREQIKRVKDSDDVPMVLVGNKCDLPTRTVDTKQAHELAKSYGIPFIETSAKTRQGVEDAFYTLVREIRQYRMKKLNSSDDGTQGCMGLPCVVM
NRAS Q61K, sequence (P62937 whole entry): as the sequence (P62937 whole entry) above
Procedure, shortened: (§2)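 Measured: compound-facilitated Cyclophilin A:Ras complex blocking RAF RBD binding. Conditions: 12.5 nM Ras-GMPPNP, 50 nM BRAF RBD, 25 μM CypA, 3 h plus 1.5 h detection. Output: IC50 from TR-FRET ratio.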

[5] = biological target: NRAS G12C (Homo sapiens (Human), UniProt P01111+P62937, G12C); test: as above; type: biochemical; conditions: read-out: NRAS G12C FRET data IC50
NRAS G12C, sequence (P01111 whole entry G12C): as the sequence (P01111 whole entry Q61K) above, with G12C, K61Q counted along it
NRAS G12C, sequence (P62937 whole entry): as the sequence (P62937 whole entry) above
Procedure, shortened: as §2

[6] = biological target: NRAS Q61R (Homo sapiens (Human), UniProt P01111+P62937, Q61R); test: as above; type: biochemical
NRAS Q61R, sequence (P01111 whole entry Q61R): as the sequence (P01111 whole entry Q61K) above, with K61R counted along it
NRAS Q61R, sequence (P62937 whole entry): as the sequence (P62937 whole entry) above
Procedure, shortened: as §2

[7] = biological target: KRAS Q61H (Homo sapiens (Human), UniProt P01116+P62937, Q61H); test: as above; type: biochemical
KRAS Q61H, sequence (P01116 other isoform, or with tags, fused parts or gaps Q61H): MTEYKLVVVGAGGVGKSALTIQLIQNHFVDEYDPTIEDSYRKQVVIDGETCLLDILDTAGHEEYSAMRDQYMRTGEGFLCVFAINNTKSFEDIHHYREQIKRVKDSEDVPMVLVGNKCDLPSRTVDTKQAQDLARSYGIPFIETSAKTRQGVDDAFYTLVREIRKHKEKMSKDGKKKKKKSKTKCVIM
KRAS Q61H, sequence (P62937 whole entry): as the sequence (P62937 whole entry) above
Procedure, shortened: as §1

[8] = biological target: KRAS WT (Homo sapiens (Human), UniProt P01116+P62937); test: as above; type: biochemical; conditions: read-out: KRAS WT FRET data IC50
KRAS WT, sequence (P01116 other isoform, or with tags, fused parts or gaps): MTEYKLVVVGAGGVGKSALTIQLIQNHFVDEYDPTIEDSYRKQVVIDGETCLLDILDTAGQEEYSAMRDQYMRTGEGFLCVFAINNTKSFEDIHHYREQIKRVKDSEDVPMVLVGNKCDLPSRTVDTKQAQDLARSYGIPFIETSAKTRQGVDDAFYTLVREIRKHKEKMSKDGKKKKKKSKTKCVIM
KRAS WT, sequence (P62937 whole entry): as the sequence (P62937 whole entry) above
Procedure, shortened: as §1

[9] = biological target: KRAS G12V (Homo sapiens (Human), UniProt P01116+P62937, G12V); test: as above; type: biochemical; conditions: read-out: KRAS G12V FRET IC50
KRAS G12V, sequence (P01116 other isoform, or with tags, fused parts or gaps G12V): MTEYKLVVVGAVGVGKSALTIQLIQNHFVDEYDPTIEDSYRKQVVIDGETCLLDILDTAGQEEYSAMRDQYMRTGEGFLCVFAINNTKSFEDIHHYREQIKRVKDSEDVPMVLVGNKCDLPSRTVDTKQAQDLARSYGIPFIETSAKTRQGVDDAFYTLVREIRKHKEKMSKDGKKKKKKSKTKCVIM
KRAS G12V, sequence (P62937 whole entry): as the sequence (P62937 whole entry) above
Procedure, shortened: as §1

[10] = biological target: KRAS G12S (Homo sapiens (Human), UniProt P01116+P62937, G12S); test: as above; type: biochemical; conditions: read-out: KRAS G12S FRET IC50
KRAS G12S, sequence (P01116 other isoform, or with tags, fused parts or gaps G12S): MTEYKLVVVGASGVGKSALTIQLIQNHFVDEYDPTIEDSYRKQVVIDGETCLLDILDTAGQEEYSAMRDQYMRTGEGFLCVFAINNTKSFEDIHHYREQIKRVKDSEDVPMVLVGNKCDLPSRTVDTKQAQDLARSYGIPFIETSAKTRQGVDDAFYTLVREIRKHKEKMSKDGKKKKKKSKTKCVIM
KRAS G12S, sequence (P62937 whole entry): as the sequence (P62937 whole entry) above
Procedure, shortened: as §1

[11] = biological target: NRAS WT (Homo sapiens (Human), UniProt P01111+P62937); test: as above; type: biochemical
NRAS WT, sequence (P01111 whole entry): as the sequence (P01111 whole entry Q61K) above, with K61Q counted along it
NRAS WT, sequence (P62937 whole entry): as the sequence (P62937 whole entry) above
Procedure, shortened: as §2

[12] = biological target: KRAS G12D (Homo sapiens (Human), UniProt P01116+P62937, G12D); test: as above; type: biochemical; conditions: read-out: KRAS G12D FRET IC50
KRAS G12D, sequence (P01116 other isoform, or with tags, fused parts or gaps G12D): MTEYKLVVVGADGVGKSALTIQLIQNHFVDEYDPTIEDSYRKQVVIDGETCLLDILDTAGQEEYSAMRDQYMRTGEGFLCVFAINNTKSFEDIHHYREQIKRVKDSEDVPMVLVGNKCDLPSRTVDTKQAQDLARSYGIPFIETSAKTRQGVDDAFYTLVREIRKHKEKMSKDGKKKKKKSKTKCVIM
KRAS G12D, sequence (P62937 whole entry): as the sequence (P62937 whole entry) above
Procedure, shortened: as §1

[13] = biological target: KRAS G13C (Homo sapiens (Human), UniProt P01116+P62937, G13C); test: as above; type: biochemical; conditions: read-out: KRAS G13C FRET IC50
KRAS G13C, sequence (P01116 other isoform, or with tags, fused parts or gaps G13C): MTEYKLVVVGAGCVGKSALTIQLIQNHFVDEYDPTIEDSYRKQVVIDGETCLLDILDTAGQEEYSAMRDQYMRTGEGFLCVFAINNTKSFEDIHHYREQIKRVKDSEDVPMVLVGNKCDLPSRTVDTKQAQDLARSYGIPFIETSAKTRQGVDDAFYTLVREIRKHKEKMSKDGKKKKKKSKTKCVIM
KRAS G13C, sequence (P62937 whole entry): as the sequence (P62937 whole entry) above
Procedure, shortened: as §1

[14] = biological target: KRAS WT binding to BRAF RBD (Homo sapiens (Human), UniProt P01116+P62937); test: Ras-Raf disruption/FRET/MOA assay, KRAS WT; type: biochemical
KRAS WT binding to BRAF RBD, sequence (P01116 other isoform, or with tags, fused parts or gaps): as the sequence (P01116 other isoform, or with tags, fused parts or gaps) above
KRAS WT binding to BRAF RBD, sequence (P62937 whole entry): as the sequence (P62937 whole entry) above
Procedure, shortened: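 Compounds (top 30 μM, 3-fold, 10 points) promote Cyclophilin A (25 μM) ternary complex with His6-Ras-GMPPNP (12.5 nM), disrupting GST-BRAF RBD (50 nM) binding; 3 h, 25°C, 25 mM HEPES pH 7.3, 100 mM NaCl, 5 mM MgCl2. Detection reagents (Eu anti-His 10 nM, APC anti-GST 50 nM) added for 1.5 h; IC50 reported.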

IC50 [1] | IC50 [2] | IC50 [3] | IC50 [4] | IC50 [5] | IC50 [6] | IC50 [7] | IC50 [8] | IC50 [9] | IC50 [10] | IC50 [11] | IC50 [12] | IC50 [13] | IC50 [14] | SMILES
10 to 100 nM | 100 to 1000 nM | 1000 to 10000 nM | 1000 to 10000 nM | 1000 to 10000 nM | 1000 to 10000 nM | 100 to 1000 nM | 1000 to 10000 nM | 1000 to 10000 nM | 1000 to 10000 nM | 1000 to 10000 nM | > 10000 nM | 100 to 1000 nM |  | CCn1c(-c2cccnc2[C@H](C)OC)c2c3cc(ccc31)-c1cc(O)cc(c1)C[C@H](NC(=O)[C@@H]1[C@H]3C[C@H]3CN1C(C)=O)C(=O)N1CCC[C@H](N1)C(=O)OCC(C)(C)C2 [Compound A207]
 | 1000 to 10000 nM | 1000 to 10000 nM |  | 1000 to 10000 nM |  |  | 1000 to 10000 nM | 1000 to 10000 nM | 1000 to 10000 nM |  | > 10000 nM | 100 to 1000 nM | 10 to 100 nM | CCn1c(-c2cccnc2[C@H](C)OC)c2c3cc(ccc31)-c1cc(O)cc(c1)C[C@H](NC(=O)[C@@H](C(C)C)N(C)C(C)=O)C(=O)N1CCC[C@H](N1)C(=O)OCC(C)(C)C2 [Compound A256]
 | 1000 to 10000 nM | 1000 to 10000 nM |  | 1000 to 10000 nM |  |  | 1000 to 10000 nM | 1000 to 10000 nM | 1000 to 10000 nM |  | 1000 to 10000 nM | 1000 to 10000 nM | 10 to 100 nM | CCn1c(-c2cccnc2[C@H](C)OC)c2c3cc(ccc31)-c1csc(n1)C[C@H](NC(=O)[C@H](C(C)C)N(C)C(=O)N1C[C@H](C)N(C)C[C@H]1C)C(=O)N1CCC[C@H](N1)C(=O)OCC(C)(C)C2 [Compound A300]
< 10 nM | 100 to 1000 nM | 100 to 1000 nM | 100 to 1000 nM | 100 to 1000 nM | 1000 to 10000 nM | 10 to 100 nM | 100 to 1000 nM | 100 to 1000 nM | 100 to 1000 nM | 100 to 1000 nM | 1000 to 10000 nM | 10 to 100 nM |  | CCn1c(-c2cccnc2[C@H](C)OC)c2c3cc(ccc31)-c1cc(O)cc(c1)C[C@H](NC(=O)[C@@H]1[C@@H](C)CCCN1C(C)=O)C(=O)N1CCC[C@H](N1)C(=O)OCC(C)(C)C2 [Compound A324]
 | 10 to 100 nM | 10 to 100 nM |  | 10 to 100 nM |  |  | 10 to 100 nM | 100 to 1000 nM | 10 to 100 nM |  | 10 to 100 nM | 10 to 100 nM | 10 to 100 nM | CCn1c(-c2cccnc2[C@H](C)OC)c2c3cc(ccc31)-c1cc(O)cc(c1)C[C@H](NC(=O)[C@H](C(C)C)N(C)C(=O)[C@H]1CCN(C(=O)[C@@H](C)N(C)C)C1)C(=O)N1CCC[C@H](N1)C(=O)OCC(C)(C)C2 [Compound A386]
10 to 100 nM | 10 to 100 nM | 100 to 1000 nM | 100 to 1000 nM | 10 to 100 nM | 100 to 1000 nM | 10 to 100 nM | 10 to 100 nM | 100 to 1000 nM | 10 to 100 nM | 10 to 100 nM | 100 to 1000 nM | 10 to 100 nM |  | CCn1c(-c2cccnc2[C@H](C)OC)c2c3cc(ccc31)-c1cc(O)cc(c1)C[C@H](NC(=O)[C@H](C(C)C)N(C)C(=O)C13CC(CO1)C3)C(=O)N1CCC[C@H](N1)C(=O)OCC(C)(C)C2 [Compound A406]
< 10 nM | 100 to 1000 nM | 1000 to 10000 nM | 100 to 1000 nM | 100 to 1000 nM | 100 to 1000 nM | 100 to 1000 nM | 100 to 1000 nM | 1000 to 10000 nM | 1000 to 10000 nM | 100 to 1000 nM | 1000 to 10000 nM | 1000 to 10000 nM |  | CCn1c(-c2cc(N3CCN(C)CC3)cnc2[C@H](C)OC)c2c3cc(ccc31)-c1csc(n1)C[C@H](NC(=O)[C@H](C(C)C)N(C)C(=O)[C@@H]1CCCS1(=O)=O)C(=O)N1CCC[C@H](N1)C(=O)OCC(C)(C)C2 [Compound A440]
< 10 nM | 100 to 1000 nM | 1000 to 10000 nM | 100 to 1000 nM | 100 to 1000 nM | 1000 to 10000 nM | 100 to 1000 nM | 1000 to 10000 nM | 1000 to 10000 nM | 1000 to 10000 nM | 1000 to 10000 nM | 1000 to 10000 nM | 100 to 1000 nM |  | CCn1c(-c2cccnc2[C@H](C)OC)c2c3cc(ccc31)-c1csc(n1)C[C@H](NC(=O)[C@H](C(C)C)N(C)C(=O)N1C[C@H]3CN(C)CC[C@H]31)C(=O)N1CCC[C@H](N1)C(=O)OCC(C)(C)C2 [Compound A462]
< 10 nM | 100 to 1000 nM | 100 to 1000 nM | 1000 to 10000 nM | 100 to 1000 nM | 1000 to 10000 nM | 100 to 1000 nM | 100 to 1000 nM | 100 to 1000 nM | 100 to 1000 nM | 100 to 1000 nM | 100 to 1000 nM | 100 to 1000 nM |  | CCn1c(-c2cccnc2[C@H](C)OC)c2c3cc(ccc31)-c1csc(n1)C[C@H](NC(=O)[C@H](C(C)C)N(C)C(=O)N1CC[C@H]1CN)C(=O)N1CCC[C@H](N1)C(=O)OCC(C)(C)C2 [Compound A463]
10 to 100 nM | 100 to 1000 nM | 100 to 1000 nM | 100 to 1000 nM | 10 to 100 nM | 100 to 1000 nM | 10 to 100 nM | 10 to 100 nM | 100 to 1000 nM | 100 to 1000 nM | 10 to 100 nM | 100 to 1000 nM | 100 to 1000 nM |  | CCn1c(-c2cccnc2[C@H](C)OC)c2c3cc(ccc31)-c1csc(n1)C[C@H](NC(=O)[C@H](C(C)C)N(C)C(=O)N1CCCC13CN(C)C3)C(=O)N1CCC[C@H](N1)C(=O)OCC(C)(C)C2 [Compound A545]
10 to 100 nM | 10 to 100 nM | 10 to 100 nM | 100 to 1000 nM | 10 to 100 nM | 100 to 1000 nM | 10 to 100 nM | 10 to 100 nM | 100 to 1000 nM | 10 to 100 nM | 10 to 100 nM | 100 to 1000 nM | 100 to 1000 nM |  | CCn1c(-c2cccnc2[C@H](C)OC)c2c3cc(ccc31)-c1csc(n1)C[C@H](NC(=O)[C@H](C(C)C)N(C)C(=O)N1CC[C@@H]1CN)C(=O)N1CCC[C@H](N1)C(=O)OCC(C)(C)C2 [Compound A558]
< 10 nM | 100 to 1000 nM | 100 to 1000 nM | 100 to 1000 nM | 100 to 1000 nM | 100 to 1000 nM | 100 to 1000 nM | 100 to 1000 nM | 100 to 1000 nM | 100 to 1000 nM | 100 to 1000 nM | 1000 to 10000 nM | 100 to 1000 nM |  | CCn1c(-c2cccnc2[C@H](C)OC)c2c3cc(ccc31)-c1csc(n1)C[C@H](NC(=O)[C@H](C(C)C)N(C)C(=O)N1CC(O)(CN(C)C)C1)C(=O)N1CCC[C@H](N1)C(=O)OCC(C)(C)C2 [Compound A597]
 | 1000 to 10000 nM | 1000 to 10000 nM | 1000 to 10000 nM | 1000 to 10000 nM | 1000 to 10000 nM | 100 to 1000 nM | 1000 to 10000 nM | 1000 to 10000 nM | 1000 to 10000 nM | 1000 to 10000 nM | 1000 to 10000 nM | 1000 to 10000 nM |  | CCn1c(-c2cccnc2[C@H](C)OC)c2c3cc(ccc31)-c1csc(n1)C[C@H](NC(=O)[C@H](C(C)C)N(C)C(=O)N1CCC[C@H]1c1ccccc1)C(=O)N1CCC[C@H](N1)C(=O)OCC(C)(C)C2 [Compound A599]
 | 10 to 100 nM | 100 to 1000 nM | 100 to 1000 nM | 10 to 100 nM | 100 to 1000 nM | 10 to 100 nM | 10 to 100 nM | 100 to 1000 nM | 100 to 1000 nM | 100 to 1000 nM | 100 to 1000 nM | 10 to 100 nM |  | CCn1c(-c2cccnc2[C@H](C)OC)c2c3cc(ccc31)-c1cc(O)cc(c1)C[C@H](NC(=O)[C@H](C(C)C)N(C)C(=O)[C@]1(F)CCN(C(=O)OC)C1)C(=O)N1CCC[C@H](N1)C(=O)OCC(C)(C)C2 [Compound A616]
